The source of these data is patent US20250129101A1, “Compound, Pharmaceutical Composition Comprising the Same and Method for Treating Cancer Using the Same” (NATIONAL TSING HUA UNIVERSITY, priority 2023, published 2025).

Each structure is given as a SMILES string.

Series [1] addresses T1, KIF2C (Homo sapiens, UniProt Q99661).
T1 construct: KIF2C (216-598 a.a.); 6xHis (C); made in house; host or cells: E. coli BL21 (DE3), pET-28a
Description: In vitro validation: KIF2C kinesin activity, malachite green-based phosphate colorimetric assay. In kind it is biochemical. To be noted: concentration that inhibits 50% of KIF2C activity. The protocol:
(§1) The in vitro validation was performed by measuring KIF2C kinesin activity using malachite green-based phosphate colorimetric assay (BioVision). […] The microtubules from porcine brain tubulin (Cytoskeleton) or purified from HEK293 cells in Free-style medium (293Fs) were dissolved in the BRB80 buffer (80 mM PIPES pH 6.8, 1 mM EGTA, 1 mM MgCl2, 1 mM GTP, 1 mM DTT, and 10% DMSO) at 37° C. for 2 hr. Phosphates released from kinesin-mediated ATP hydrolysis was measured by adding 30 μL of the phosphate colorimetric reagent (BioVision), incubated for 10 min, and then measured with absorbance at 650 nm. […] The cell validation was performed by measuring cytotoxicity in MDA-MB-231 cells. The cells were cultured in a 96-well plate at a confluence of 2000 cells/well with indicates compounds for specific days. When the time was up, the culture medium in the plate was aspirated and replaced with a prepared CellTiter-Glo reagent (Promega)/DMEM mixture (1:1 mix of CellTiter-Glo reagent and serum-supplemented DMEM). After incubation for 10 min, the luminescence was measured with an ELISA plate reader to determine the cell viability.
In vitro kinesin activity was measured using malachite green-based phosphate colorimetric assay (BioVision). […] The microtubules from porcine brain tubulin (Cytoskeleton) or purified from HEK293 cells in Free-style medium (293Fs) were dissolved in the BRB80 buffer (80 mM PIPES pH 6.8, 1 mM EGTA, 1 mM MgCl2, 1 mM GTP, 1 mM DTT, and 10% DMSO) at 37° C. for 2 hr. Phosphates released from kinesin-mediated ATP hydrolysis was measured by adding 30 μL of the phosphate colorimetric reagent (BioVision), incubated for 10 min, and then measured with absorbance at 650 nm.
Constructs of sN+M regions of KIF2C (216-598 a.a.), KIF2A (181-562 a.a.) and KIF2B (171-553 a.a.) with C-terminal 6×His tag were subcloned into pET-28a vector and expressed in BL21 (DE3) E. coli cells (Novartis) cultured in Luria-Bertani medium supplemented with 50 ug/mL kanamycin at 37° C. After induction with 0.8 mM IPTG for 18 hr at 20° C., the cells were pelleted by centrifugation at 6000 rpm for 30 min at 10° C. The collected pellets were resuspended in 30 mL of buffer A (20 mM Tris-HCl pH 7.5, 500 mM NaCl, 10 mM imidazole, 1% CHAPS, and 1 mM PMSF) and next subjected to a high-pressure homogenizer (EmulsiFlex-C3) for cell lysis. After removing the cell debris by centrifugation at 13000 rpm for 30 min at 10° C., the recombinant Kinesin-13 in the supernatant was purified using nickel affinity chromatography. Firstly, the supernatant was applied to the Ni-NTA column (GE Healthcare) pre-equilibrated with buffer A. Secondly, the column was washed with 10× column volumes of buffer A to remove the unwanted proteins. The washed column was then eluted with 10× column volumes of buffer containing increasing concentrations of imidazole (40, 100, 300, 1000 mM), and the majority of the recombinant Kinesin-13 protein was eventually obtained in a fraction of 300 mM imidazole. The fractions containing the recombinant Kinesin-13 were subsequently concentrated in the buffer B (20 mM Tris-HCl pH 7.5, 10 mM imidazole, 50 mM NaCl, 2 mM DTT) using an Amicon® Ultra filter (Millipore) and subjected to cation exchange column (Capto S, GE Healthcare) for further purification. The recombinant Kinesin-13 was then eluted in elution buffer (20 mM Tris-HCl pH 7.5 and 2 mM DTT) containing 400 mM of NaCl and stored at −80° C. for long-term storage.

For series [2], the system named is MDA-MB-231 cells. Description: Cell validation: cytotoxicity in MDA-MB-231 cells (CellTiter-Glo). In kind it is cell-based. The following applies: for IC50: Homo sapiens; for IC50 / Cell validation (IC50): cytotoxicity in MDA-MB-231 cells. The protocol:
as §1
The cancer cells were cultured in a 96-well plate at a confluence of 1000-2000 cells/well with indicated drugs for specific days. When the time was up, the culture medium in the plate was aspirated and replaced with a prepared CellTiter-Glo reagent/DMEM mixture (1:1 mix of CellTiter-Glo reagent and serum-supplemented DMEM). After incubation for 10 min, the luminescence (proportional to the number of living cells) was measured with an ELISA plate reader to determine the cell viability.
On the technique in general: ATP-based viability assays read luminescence as a measure of living cells.

T1 sequence (Q99661 216-598): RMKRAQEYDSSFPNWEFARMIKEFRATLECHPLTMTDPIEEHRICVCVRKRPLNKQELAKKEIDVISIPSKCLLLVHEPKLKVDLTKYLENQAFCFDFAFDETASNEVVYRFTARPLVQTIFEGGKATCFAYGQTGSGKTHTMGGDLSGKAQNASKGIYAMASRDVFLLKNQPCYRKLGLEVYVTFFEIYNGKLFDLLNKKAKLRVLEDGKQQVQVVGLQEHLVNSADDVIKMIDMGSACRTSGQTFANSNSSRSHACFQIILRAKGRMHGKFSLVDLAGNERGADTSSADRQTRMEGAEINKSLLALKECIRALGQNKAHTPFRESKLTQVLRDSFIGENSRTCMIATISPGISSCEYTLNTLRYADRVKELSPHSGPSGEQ

On to `CC1=C(C(=O)OC(C)C)C(c2ccc(Cl)cc2)n2c(s/c(=C\c3ccc(OCC#N)cc3)c2=O)=N1` (centres unmarked) [38S0 (117), isopropyl (Z)-5-(4-chlorophenyl)-2-(4-(cyanomethoxy)benzylidene)-7-methyl-3-oxo-2,3-dihydro-5H-thiazolo[3,2-a]pyrimidine-6-carboxylate], for which, in series [1], the EC50 (as a rule, the concentration giving half of the maximal effect) was more than 100 µM. Also, in series [2], the IC50 (as a rule, the concentration that inhibits the measured activity by half) is more than 50 µM.
`CCN1CCN(C(=O)COc2ccc(/C=c3\sc4n(c3=O)C(c3ccc(N(C)C)cc3)C(C(=O)OC(C)C)=C(C)N=4)cc2)CC1` (centres unmarked) [Compound 147] yielded an EC50 in series [1] of less than 50 µM. The “Cell validation (IC50)” value in series [2] was “+ +”.
Consider `CCN1CCN(C(=O)COc2ccc(/C=c3\sc4n(c3=O)C(c3cccc(Cl)c3)C(C(=O)OC(C)C)=C(C)N=4)cc2)CC1` (centres unmarked) [16S0 (67), isopropyl (Z)-5-(3-chlorophenyl)-2-(4-(2-(4-ethylpiperazin-1-yl)-2-oxoethoxy)benzylidene)-7-methyl-3-oxo-2,3-dihydro-5H-thiazolo[3,2-a]pyrimidine-6-carboxylate], for which the EC50 in series [1] was in the range of 50 to 100 µM. For the same compound, the “Cell validation (IC50)” value in series [2] is listed as “+ +”.
On to `CC1=C(C(=O)OC(C)C)C(c2ccc(Cl)cc2)n2c(s/c(=C\c3ccc(OCCCO)cc3)c2=O)=N1` (centres unmarked) [39S0 (118), isopropyl (Z)-5-(4-chlorophenyl)-2-(4-(3-hydroxypropoxy)benzylidene)-7-methyl-3-oxo-2,3-dihydro-5H-thiazolo[3,2-a]pyrimidine-6-carboxylate], for which the EC50 in series [1] is more than 100 µM. For the same compound, the IC50 in series [2] was more than 50 µM.
For `CC1=C(C(=O)OC(C)C)C(c2ccc(Cl)cc2)n2c(s/c(=C\c3ccc(OCC(=O)N4CCC(N(C)C)CC4)cc3)c2=O)=N1` (centres unmarked) [23S0 (18), propan-2-yl (2Z)-5-(4-chlorophenyl)-2-(4-(2-(4-(dimethylamino)piperidin-1-yl)-2-oxoethoxy)benzylidene)-7-methyl-3-oxo-2,3-dihydro-5H-[1,3]thiazolo[3,2-a]pyrimidine-6-carboxylate], the EC50 in series [1] is less than 50 µM. The “Cell validation (IC50)” value in series [2] was “+ + +”.
In the case of `CNC(=O)COc1ccc(/C=c2\sc3n(c2=O)C(c2ccc(F)cc2)C(C(=O)OC(C)C)=C(C)N=3)cc1` (centres unmarked) [10S0 (35), isopropyl (Z)-5-(4-fluorophenyl)-7-methyl-2-(4-(2-(methylamino)-2-oxoethoxy)benzylidene)-3-oxo-2,3-dihydro-5H-thiazolo[3,2-a]pyrimidine-6-carboxylate], the EC50 in series [1] was more than 100 µM. Further, in series [2], the IC50 is more than 50 µM.
In turn, `CC1=C(C(=O)OC(C)C)C(c2ccc(Cl)cc2)n2c(s/c(=C\c3ccc(F)cc3)c2=O)=N1` (centres unmarked) [2S0 (22), isopropyl (Z)-5-(4-chlorophenyl)-2-(4-fluorobenzylidene)-7-methyl-3-oxo-2,3-dihydro-5H-thiazolo[3,2-a]pyrimidine-6-carboxylate] yielded an EC50 in series [1] of more than 100 µM. This compound also had an IC50 in series [2] of more than 50 µM.
In series [1], `CC1=C(C(=O)OC(C)C)C(c2ccc(Cl)cc2)n2c(s/c(=C\c3ccc(OCC(=O)N4CCN(C(C)C)CC4)cc3)c2=O)=N1` (centres unmarked) [11S0 (16), isopropyl (Z)-5-(4-chlorophenyl)-2-(4-(2-(4-isopropylpiperazin-1-yl)-2-oxoethoxy)benzylidene)-7-methyl-3-oxo-2,3-dihydro-5H-thiazolo[3,2-a]pyrimidine-6-carboxylate] showed an EC50 of more than 100 µM. For the same compound, the “Cell validation (IC50)” value in series [2] is reported as “+ +”.
In turn, `CC1=C(C(=O)OC(C)C)C(c2ccc(Cl)cc2)n2c(s/c(=C\c3ccc(OCC(N)=O)cc3)c2=O)=N1` (centres unmarked) [8S0 (15), isopropyl (Z)-2-(4-(2-amino-2-oxoethoxy)benzylidene)-5-(4-chlorophenyl)-7-methyl-3-oxo-2,3-dihydro-5H-thiazolo[3,2-a]pyrimidine-6-carboxylate] gave an EC50 in series [1] of more than 100 µM. Besides, the IC50 in series [2] is more than 50 µM.
The compound `CC1=C(C(=O)OC(C)C)C(c2ccc(Cl)cc2)n2c(s/c(=C\c3ccc(OCC(=O)N4CCN(C)CC4)cc3)c2=O)=N1` (centres unmarked) [6S0 (13), propan-2-yl (2Z)-5-(4-chlorophenyl)-7-methyl-2-(4-(2-(4-methylpiperazin-1-yl)-2-oxoethoxy)benzylidene)-3-oxo-2,3-dihydro-5H-[1,3]thiazolo[3,2-a]pyrimidine-6-carboxylate] showed an EC50 in series [1] of 50 to 100 µM. In series [2] (72 hr), the “cytotoxicity on MDA-MB-231 cells (in words)” value was “showed cytotoxicity”. In addition, the “Cell validation (IC50)” value in series [2] is listed as “+ +”.
`CCOC(=O)C1=C(C)N=c2s/c(=C\c3ccc(OCC(=O)O)cc3)c(=O)n2[C@@H]1c1ccc(Cl)cc1` [54S0 (130)] gave an EC50 in series [1] of 50 to 100 µM. Further, the IC50 in series [2] was more than 50 µM.
Turning to `COC(=O)C1=C(C)N=c2s/c(=C\c3ccc(OCC(=O)O)cc3)c(=O)n2C1c1ccc(Cl)cc1` (centres unmarked) [14S0 (78), (Z)-2-(4-((5-(4-chlorophenyl)-6-(methoxycarbonyl)-7-methyl-3-oxo-5H-thiazolo[3,2-a]pyrimidin-2(3H)-ylidene)methyl)phenoxy)acetic acid], the EC50 in series [1] was in the range of 50 to 100 µM. Also, in series [2], the IC50 was more than 50 µM.
Compound `CCN1CCN(C(=O)COc2ccc(/C=c3\sc4n(c3=O)C(c3ccc(N(C)C)cc3)C(C(=O)OC(C)(C)C)=C(C)N=4)cc2)CC1` (centres unmarked) [Compound 148] displayed an EC50 in series [1] of less than 50 µM. The “Cell validation (IC50)” value in series [2] is listed as “+ +”.
The compound `CC1=C(C(=O)OC(C)C)C(c2ccc(Br)cc2)n2c(s/c(=C\c3ccc(OCC(=O)O)cc3)c2=O)=N1` (centres unmarked) [40S0 (40), (4-(((2Z)-5-(4-bromophenyl)-7-methyl-3-oxo-6-((propan-2-yloxy)carbonyl)-5H-[1,3]thiazolo[3,2-a]pyrimidin-2(3H)-ylidene)methyl)phenoxy)acetic acid] yielded an EC50 in series [1] of less than 20 µM. The IC50 in series [2] is more than 50 µM.
`CC1=C(C(=O)OC(C)C)C(c2ccc(Cl)cc2)n2c(s/c(=C\c3ccc(OCc4cnn[nH]4)cc3)c2=O)=N1` (centres unmarked) [37S0 (120), isopropyl (Z)-2-(4-((1H-1,2,3-triazol-5-yl)methoxy)benzylidene)-5-(4-chlorophenyl)-7-methyl-3-oxo-2,3-dihydro-5H-thiazolo[3,2-a]pyrimidine-6-carboxylate] registered an EC50 in series [1] of more than 100 µM. The compound also yielded an IC50 in series [2] of more than 50 µM.
In turn, `CC1=C(C(=O)OC(C)C)C(c2ccc(Br)cc2)n2c(s/c(=C\c3ccc(OCC(=O)N4CCN(C)CC4)cc3)c2=O)=N1` (centres unmarked) [20S0 (41), isopropyl (Z)-5-(4-bromophenyl)-7-methyl-2-(4-(2-(4-methylpiperazin-1-yl)-2-oxoethoxy)benzylidene)-3-oxo-2,3-dihydro-5H-thiazolo[3,2-a]pyrimidine-6-carboxylate] returned an EC50 in series [1] of 50 to 100 µM. Also, the “Cell validation (IC50)” value in series [2] was “+ + +”.
For `CC1=C(C(=O)OC(C)C)C(c2ccc(Cl)cc2)n2c(s/c(=C\c3ccc(OCC(=O)N4CCC(N(C)C)CC4)cc3)c2=O)=N1.O=C(O)/C=C\C(=O)O` (centres unmarked) [23S9 (134), isopropyl (Z)-5-(4-chlorophenyl)-2-(4-(2-(4-(dimethylamino)piperidin-1-yl)-2-oxoethoxy)benzylidene)-7-methyl-3-oxo-2,3-dihydro-5H-thiazolo[3,2-a]pyrimidine-6-carboxylate maleate] the same measures were less than 50 µM and “+ + +”.
